Among the test systems are OVCAR-3; NCI-H522; 786-0; SN12C; OVCAR-4; HOP-62; SF-268; K562; HCT-116; UACC-62; U-251; IGROV-1; SF-539; SF-295; OVCAR-5; HCC 2998; HCT-15; SNB-75.
Assay in all cases: NCI-60 cell line screen, 48 h

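These data come from cells grown in 96-well plates and exposed to compound for 48 hours at five concentrations. GI50 = concentration required for 50% inhibition of growth.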 Activity calls are given as the source filed them. Cut-off read from the data, not from the text of the source: active = GI50 up to about 1.1 µM and inactive = higher. Where a SMILES comes first, the peptide text is derived from it. The star is where a group is joined. Boc = CC(C)(C)OC(=O)* A value given as a limit tells only on which side of the number the result lay.

With `Cc1nn2c3c(nnc2c1C#N)C(=O)NN=C(N)S3`, the GI50 in the experiment with OVCAR-3, in the experiment with NCI-H522, in the experiment with 786-0, in the experiment with SN12C, in the experiment on OVCAR-4 and with HOP-62 was > 100 µM (inactive) in each case. Moreover, the GI50 in the experiment with SF-268, in the experiment with K562, with HCT-116, in the experiment with UACC-62, with U-251 and in the experiment with IGROV-1 was > 100 µM (inactive) in each case. The GI50 in the experiment with SF-539, in the experiment on SF-295 and with OVCAR-5 was > 100 µM (inactive) in each case.

Take `CCCCCCN(CCCCCC)CCC(=O)c1ccc2cc(Br)c3ccccc3c2c1`: the GI50 in the experiment on HCC 2998 was 41.3 µM (inactive); in the experiment with OVCAR-3 it was 33 µM (inactive); in the experiment with NCI-H522, 25.5 µM (inactive); in the experiment on 786-0, 24.9 µM (inactive); with SN12C, 34 µM (inactive); in the experiment with HCT-15, 33.8 µM. Besides, the GI50 in the experiment on HOP-62 is 40.4 µM (inactive); in the experiment on SF-268 it was 28.1 µM (inactive); with K562, 41.1 µM (inactive); in the experiment on HCT-116 it was 78.3 µM (inactive); in the experiment on UACC-62 it was 25.8 µM (inactive); in the experiment on U-251, 36.2 µM (inactive). The GI50 with IGROV-1 was 40.3 µM (inactive); in the experiment with SF-539, 21.3 µM (inactive); with SF-295, 59 µM (inactive); in the experiment on OVCAR-5, 78 µM (inactive).

`CC1CC2C(=O)N(c3ccccc3)C(=O)C2c2c1c1ccccc1n2Cc1ccccc1` (stereo not drawn): the GI50 in the experiment with OVCAR-3 is > 100 µM (inactive); in the experiment with NCI-H522, 17.7 µM (inactive); with 786-0, > 100 µM (inactive); with SN12C it was > 100 µM (inactive); in the experiment with OVCAR-4, > 100 µM (inactive); in the experiment on HCT-15 it was 35.1 µM. Further, the GI50 was > 100 µM (inactive) in the experiment on HOP-62; > 100 µM (inactive) in the experiment on SF-268; 14.5 µM (inactive) with K562; 29.3 µM (inactive) in the experiment on HCT-116; > 100 µM (inactive) in the experiment with UACC-62; > 100 µM (inactive) with IGROV-1. In addition, the GI50 in the experiment with SF-539, with SF-295 and with OVCAR-5 was > 100 µM (inactive) in each case.

Turning to `COC(=O)C(Cc1ccccc1)NC(=O)C(CCC(=O)OCc1ccccc1)NC(=O)OC(C)(C)C` (stereo not drawn), the GI50 in the experiment with HCC 2998 is 31 µM (inactive); in the experiment with OVCAR-3, 50.2 µM (inactive); in the experiment with NCI-H522, 30.4 µM (inactive); in the experiment with 786-0, > 100 µM (inactive); with SN12C it was 82.6 µM (inactive); in the experiment on OVCAR-4, 64 µM (inactive). The GI50 with HCT-15 was 85.5 µM; in the experiment with HOP-62 it was > 100 µM (inactive); with SF-268 it was > 100 µM (inactive); in the experiment with K562, 26.9 µM (inactive); with HCT-116, 44.4 µM (inactive); in the experiment with UACC-62 it was > 100 µM (inactive). The GI50 in the experiment on SNB-75, in the experiment with U-251, in the experiment on IGROV-1, in the experiment with SF-539, in the experiment with SF-295 and in the experiment with OVCAR-5 was > 100 µM (inactive) throughout.

Regarding `N#C/C(c1nc2ccccc2[nH]1)=c1\s/c(=C/c2ccc(Cl)cc2)c(=O)n1-c1ccccc1`, the GI50 with HCC 2998, in the experiment on OVCAR-3, in the experiment with NCI-H522, with 786-0, with SN12C and with OVCAR-4 was > 100 µM (inactive) in each case. Moreover, the GI50 with HCT-15 is above 100 µM; with HOP-62, > 100 µM (inactive); with SF-268, > 100 µM (inactive); in the experiment on K562, > 100 µM (inactive); in the experiment with HCT-116, > 100 µM (inactive); in the experiment with UACC-62, > 100 µM (inactive). In addition, the GI50 in the experiment with SNB-75 was 37.3 µM (inactive); in the experiment on U-251, > 100 µM (inactive); with IGROV-1, 15.7 µM (inactive); in the experiment on SF-539, > 100 µM (inactive); with OVCAR-5, > 100 µM (inactive).

As to `COc1ccc(C2=Nn3c(nnc(Cc4ccc(Cl)cc4)c3=O)SC2)cc1`, the GI50 is 55.1 µM (inactive) in the experiment with HCC 2998; 28.2 µM (inactive) in the experiment with OVCAR-3; 42.4 µM (inactive) in the experiment on NCI-H522; 45 µM (inactive) with 786-0; 61.2 µM (inactive) in the experiment on SN12C; 42.9 µM (inactive) in the experiment with OVCAR-4. In addition, the GI50 in the experiment with HCT-15 is 29 µM; in the experiment with HOP-62, 62.1 µM (inactive); with SF-268, > 100 µM (inactive); in the experiment with K562, 24.3 µM (inactive); with HCT-116, 28.1 µM (inactive); in the experiment with UACC-62, 32.4 µM (inactive). Also, the GI50 in the experiment on U-251 is 40.3 µM (inactive); with IGROV-1, 51.1 µM (inactive); with SF-539, 37.8 µM (inactive); in the experiment with SF-295, 34.3 µM (inactive); in the experiment with OVCAR-5 it was > 100 µM (inactive).

As to `CC1(C)Cc2nnsc2C2=C1C(=O)CCS2`, the GI50 with HCC 2998, with OVCAR-3, in the experiment with NCI-H522, in the experiment with 786-0, with SN12C and in the experiment with OVCAR-4 was > 100 µM (inactive) throughout. Besides, the GI50 is above 100 µM in the experiment on HCT-15; > 100 µM (inactive) in the experiment with HOP-62; > 100 µM (inactive) in the experiment on SF-268; > 100 µM (inactive) in the experiment with K562; > 100 µM (inactive) in the experiment with UACC-62; 24 µM (inactive) with SNB-75. The GI50 with U-251 is 60.4 µM (inactive); in the experiment with IGROV-1, > 100 µM (inactive); with SF-539, > 100 µM (inactive); with SF-295 it was > 100 µM (inactive); with OVCAR-5 it was > 100 µM (inactive).

Take `CCOC(=O)c1cn(-c2ccc(Cl)cc2)c(=O)n2c1nc1ccccc12`: the GI50 is > 100 µM (inactive) in the experiment on HCC 2998; > 100 µM (inactive) in the experiment with OVCAR-3; > 100 µM (inactive) in the experiment on 786-0; > 100 µM (inactive) with SN12C; > 100 µM (inactive) in the experiment on OVCAR-4; above 100 µM in the experiment with HCT-15. For the same compound, the GI50 in the experiment with HOP-62, in the experiment with K562, with HCT-116, in the experiment with UACC-62, in the experiment on SNB-75 and in the experiment on U-251 was > 100 µM (inactive) throughout. Also, the GI50 in the experiment with IGROV-1, in the experiment on SF-539, in the experiment with SF-295 and in the experiment on OVCAR-5 was > 100 µM (inactive) throughout.

Take `CC(C)(C)OC(=O)NCC(=O)NCC(=O)NCC(=O)NCC(=O)O` (Boc-GGGG-OH): the GI50 with HCC 2998, in the experiment with OVCAR-3, with NCI-H522, in the experiment on 786-0, in the experiment on SN12C and in the experiment on OVCAR-4 was > 100 µM (inactive) each time. Further, the GI50 with HCT-15 was above 100 µM; in the experiment on HOP-62 it was > 100 µM (inactive); in the experiment with SF-268, > 100 µM (inactive); with K562, > 100 µM (inactive); in the experiment with HCT-116, > 100 µM (inactive); in the experiment on UACC-62 it was > 100 µM (inactive). Further, the GI50 in the experiment with U-251, in the experiment on IGROV-1, in the experiment with SF-539, with SF-295 and in the experiment with OVCAR-5 was > 100 µM (inactive) in each case.

The values above are taken from ChEMBL document CHEMBL1201862, “PubChem BioAssay data set” (2004).
